From patent US20060100431A1, “Biologically active compounds” (Amura Therapeutics Limited, priority 2002, published 2006)

Columns and labels:
human cathepsin B = molecular target: T1, human cathepsin B (Homo sapiens, UniProt P07858); test: Cathepsin B peptidase activity assay (Ki); type: biochemical; settings: read-out: Ki, inhibitors of cathepsin B
T1 construct: purchased CN Biosciences
Procedure, shortened: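 Buffer: 10 mM bis-tris-propane pH 6.5, 1 mM EDTA, 5 mM 2-mercaptoethanol, 1 mM CaCl2; DMSO <1%. Ki assumed reversible, pure-competitive, from Ki^app=Ki(1+[So]/KM^app) by non-linear regression.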

CPB2.8ΔCTE = molecular target: T2, CPB2.8ΔCTE (Leishmania mexicana, UniProt P36400); test: Leishmania mexicana cysteine protease B (CPB) peptidase activity assay (Ki); type: biochemical
T2 construct: Wild-type recombinant CPB without the C-terminal extention (i.e. CPB2.8ΔCTE); Dr. Jeremy Mottram (Wellcome Centre for Molecular Parasitology, University of Glasgow)
T2 sequence (P36400 126-343, stated change not applied): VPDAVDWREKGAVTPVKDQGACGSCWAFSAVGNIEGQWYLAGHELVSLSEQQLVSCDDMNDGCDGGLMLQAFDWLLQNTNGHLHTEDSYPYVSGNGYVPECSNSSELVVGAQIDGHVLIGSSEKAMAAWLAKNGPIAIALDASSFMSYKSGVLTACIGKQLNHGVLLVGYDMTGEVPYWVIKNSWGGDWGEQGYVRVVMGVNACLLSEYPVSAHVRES
Procedure, shortened: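 Apparent Ki was derived by regression of activity against inhibitor concentration, assuming pure-competitive reversible binding. Reaction: 0.25 nM CPB lacking the C-terminal extension, pH 5.5 acetate buffer (1 mM EDTA, 200 mM NaCl, 10 mM DTT), 25 °C, followed by continuous substrate fluorescence.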

[1] = Ki, inhibitors of Leismania mexicana CPB protease

| Compound | Ki (human cathepsin B) [µM] | Ki (CPB2.8ΔCTE; Ki CPB, Table 5) [µM] | Ki (CPB2.8ΔCTE; [1]) [µM] |
| --- | --- | --- | --- |
| CC(C)C[C@H](NC(=O)c1ccc(-c2cccs2)cc1)C(=O)N1CC[C@@H]2[C@H]1C(=O)CN2C(=O)c1ccccc1 [Example 2, (3aR,6aS)-N-[(1S)-1-(4-Benzoyl-6-oxo-hexahydro-pyrrolo[3,2-b]pyrrole-1-carbonyl)-3-methyl-butyl]-4-thiophen-2-yl-benzamide] | < 5 | > 0.2 | < 5 |
| CC(C)C[C@H](NC(=O)c1cc2ccccc2s1)C(=O)N1CC[C@@H]2[C@H]1C(=O)CN2C(=O)c1ccccc1 [Example 7, (3aR,6aS)-Benzo[b]thiophene-2-carboxylic acid [(1S)-1-(4-benzoyl-6-oxo-hexahydro-pyrrolo[3,2-b]pyrrole-1-carbonyl)-3-methyl-butyl]-amide] | < 5 | – | – |
| CC(C)C[C@H](NC(=O)c1ccc(N(C)C)cc1)C(=O)N1CC[C@@H]2[C@H]1C(=O)CN2C(=O)c1ccccc1 [Example 14, (3aR,6aS)-N-[(1S)-1-(4-Benzoyl-6-oxo-hexahydro-pyrrolo[3,2-b]pyrrole-1-carbonyl)-3-methyl-butyl]-4-dimethylamino-benzamide] | < 5 | – | < 5 |
| CC(C)C[C@H](NC(=O)c1cccc(N(C)C)c1)C(=O)N1CC[C@@H]2[C@H]1C(=O)CN2C(=O)c1cccc(S(C)(=O)=O)c1 [Example 59, (3aR,6aS)-3-Dimethylamino-N-{(1S)-1-[4-(3-methanesulfonyl-benzoyl)-6-oxo-hexahydro-pyrrolo[3,2-b]pyrrole-1-carbonyl]-3-methyl-butyl}-benzamide] | < 5 | – | < 5 |
| CC(C)C[C@H](NC(=O)c1ccc2c(c1)CCCN2)C(=O)N1CC[C@@H]2[C@H]1C(=O)CN2C(=O)c1ccccc1 [Example 87, (3aR,6aS)-1,2,3,4-Tetrahydro-quinoline-6-carboxylic acid [(1S)-1-(4-benzoyl-6-oxo-hexahydro-pyrrolo[3,2-b]pyrrole-1-carbonyl)-3-methyl-butyl]-amide] | < 5 | – | < 5 |
| CC(C)C[C@H](NC(=O)c1ccc2ncsc2c1)C(=O)N1CC[C@@H]2[C@H]1C(=O)CN2C(=O)c1ccccc1 [Example 90, (3aR,6aS)-Benzothiazole-6-carboxylic acid [(1S)-1-(4-benzoyl-6-oxo-hexahydro-pyrrolo[3,2-b]pyrrole-1-carbonyl)-3-methyl-butyl]-amide] | < 5 | – | < 5 |
| CC(C)C[C@H](NC(=O)c1ccc(-n2cccn2)cc1)C(=O)N1CC[C@@H]2[C@H]1C(=O)CN2C(=O)c1ccccc1 [Example 91, (3aR,6aS)-N-[(1S)-1-(4-Benzoyl-6-oxo-hexahydro-pyrrolo[3,2-b]pyrrole-1-carbonyl)-3-methyl-butyl]-4-pyrazol-1-yl-benzamide] | < 5 | – | < 5 |
| CC(C)C[C@H](NC(=O)c1ccc(N(C)C)cc1)C(=O)N1CC[C@@H]2[C@H]1C(=O)CN2C(=O)c1csc2ccccc12 [Example 103, (3aR,6aS)-N-{(1S)-1-[4-(Benzo[b]thiophene-3-carbonyl)-6-oxo-hexahydro-pyrrolo[3,2-b]pyrrole-1-carbonyl]-3-methyl-butyl}-4-dimethylamino-benzamide] | < 5 | – | < 5 |
| CC(=O)N[C@@H](CC(C)C)C(=O)N1CC(=O)[C@@H]2[C@H]1CCN2C(=O)[C@H](CC(C)C)NC(=O)c1ccc(N(C)C)cc1 [Example 151, (3aR,6aS)-N-{(1S)-1-[4-((2S)-2-Acetylamino-4-methyl-pentanoyl)-6-oxo-hexahydro-pyrrolo[3,2-b]pyrrole-1-carbonyl]-3-methyl-butyl}-4-dimethylamino-benzamide] | < 5 | – | < 5 |
| CC(C)C[C@H](NC(=O)c1ccc(N(C)C)cc1)C(=O)N1CC[C@@H]2[C@H]1C(=O)CN2C(=O)[C@@H](NC(=O)OCc1ccccc1)C(C)C [Example 158, (3aS,6aR)-((S)-1-{4-[(2S)-2-(4-Dimethylamino-benzoylamino)-4-methyl-pentanoyl]-3-oxo-hexahydro-pyrrolo[3,2-b]pyrrole-1-carbonyl}-2-methyl-propyl)-carbamic acid benzyl ester] | < 5 | – | < 5 |
| CC(C)C[C@H](NC(=O)c1ccc(OC(F)(F)F)cc1)C(=O)N1CC[C@@H]2[C@H]1C(=O)CN2C(=O)c1ccccc1 [Example 173, (3aR,6aS)-N-[(1S)-1-(4-Benzoyl-6-oxo-hexahydro-pyrrolo[3,2-b]pyrrole-1-carbonyl)-3-methyl-butyl]-4-trifluoromethoxy-benzamide] | < 5 | – | < 5 |
| CC(C)C[C@H](NC(=O)c1ccc(N2CCNCC2)cc1)C(=O)N1CC[C@@H]2[C@H]1C(=O)CN2C(=O)c1ccccc1 [Example 194, (3aR,6aS)-N-[(1S)-1-(4-Benzoyl-6-oxo-hexahydro-pyrrolo[3,2-b]pyrrole-1-carbonyl)-3-methyl-butyl]-4-piperazin-1-yl-benzamide] | < 5 | – | < 5 |
| CC(C)C[C@H](NC(=O)c1cccc(N2CCNCC2)c1)C(=O)N1CC[C@@H]2[C@H]1C(=O)CN2C(=O)c1ccccc1 [Example 247, (3aR,6aS)-N-[(1S)-1-(4-Benzoyl-6-oxo-hexahydro-pyrrolo[3,2-b]pyrrole-1-carbonyl)-3-methyl-butyl]-3-piperazin-1-yl-benzamide] | < 5 | – | < 5 |
| CC(C)C[C@H](NC(=O)c1ccc(C(C)(C)C)cc1)C(=O)N1NC[C@@H]2[C@H]1C(=O)CN2C(=O)c1ccccc1 [Example 249a, (3aR,6aS)-N-[(1S)-1-(4-benzoyl-6-oxo-hexahydropyrrolo[3,2-c]pyrazole-1-carbonyl)-3-methylbutyl]-4-tert-butylbenzamide] | < 5 | – | < 5 |
| CC(C)CC(NC(=O)c1ccc(N)cc1)C(=O)N1NC[C@@H]2[C@H]1C(=O)CN2C(=O)c1ccccc1 (stereo partly drawn) [Example 249b, (3aR,6aS)-4-amino-N-[1-(4-benzoyl-6-oxo-hexahydropyrrolo[3,2-c]pyrazole-1-carbonyl)-3-methylbutyl)benzamide] | < 5 | – | < 5 |
| CC(C)C[C@H](NC(=O)c1ccc(N)cc1)C(=O)N1NC[C@@H]2[C@H]1C(=O)CN2C(=O)c1cccc(S(C)(=O)=O)c1 [Example 249c, (3aR,6aS)-4-amino-N-{(1S)-1-[4-(3-methanesulfonylbenzoyl)-6-oxo-hexahydropyrrolo [3,2-c]pyrazole-1-carbonyl]-3-methylbutyl}benzamide] | < 5 | – | < 5 |
| O=C(N[C@@H](CC1CCCCC1)C(=O)N1CC[C@@H]2[C@H]1C(=O)CN2C(=O)c1ccccc1)c1ccsc1 [Example 250, (3aR,6aS)-Thiophene-3-carboxylic acid [(1S)-2-(4-benzoyl-6-oxo-hexahydro-pyrrolo[3,2-b]pyrrole-1-yl)-1-cyclohexylmethyl-2-oxo-ethyl]-amide] | – | > 5 | – |
| O=C(N[C@@H](Cc1ccc(O)cc1)C(=O)N1CC[C@@H]2[C@H]1C(=O)CN2C(=O)c1ccccc1)c1cccc2ccccc12 [Example 296, (3aR,6aS)-Naphthalene-1-carboxylic acid [(1S)-2-(4-benzoyl-6-oxo-hexahydro-pyrrolo[3,2-b]pyrrole-1-yl)-1-(4-hydroxybenzyl)-2-oxo-ethyl]-amide] | < 5 | > 5 | – |
| CC(C)(C)c1ccc(C(=O)N[C@@H](Cc2ccc(O)cc2)C(=O)N2CC[C@@H]3[C@H]2C(=O)CN3C(=O)c2ccccc2)cc1 [Example 346, (3aR,6aS)-N-[(1S)-2-(4-Benzoyl-6-oxo-hexahydro-pyrrolo[3,2-b]pyrrol-1-yl)-1-(4-hydroxybenzyl)-2-oxo-ethyl]-4-tert-butyl-benzamide] | – | > 5 | – |
